Bounds are passed on as bounds.

In this assay the target is Tripeptidyl-peptidase 2 (Rattus norvegicus, UniProt Q64560). In words: Inhibitory activity against tripeptidyl peptidase II purified from rat liver.
Tripeptidyl-peptidase 2, sequence (Q64560 whole entry): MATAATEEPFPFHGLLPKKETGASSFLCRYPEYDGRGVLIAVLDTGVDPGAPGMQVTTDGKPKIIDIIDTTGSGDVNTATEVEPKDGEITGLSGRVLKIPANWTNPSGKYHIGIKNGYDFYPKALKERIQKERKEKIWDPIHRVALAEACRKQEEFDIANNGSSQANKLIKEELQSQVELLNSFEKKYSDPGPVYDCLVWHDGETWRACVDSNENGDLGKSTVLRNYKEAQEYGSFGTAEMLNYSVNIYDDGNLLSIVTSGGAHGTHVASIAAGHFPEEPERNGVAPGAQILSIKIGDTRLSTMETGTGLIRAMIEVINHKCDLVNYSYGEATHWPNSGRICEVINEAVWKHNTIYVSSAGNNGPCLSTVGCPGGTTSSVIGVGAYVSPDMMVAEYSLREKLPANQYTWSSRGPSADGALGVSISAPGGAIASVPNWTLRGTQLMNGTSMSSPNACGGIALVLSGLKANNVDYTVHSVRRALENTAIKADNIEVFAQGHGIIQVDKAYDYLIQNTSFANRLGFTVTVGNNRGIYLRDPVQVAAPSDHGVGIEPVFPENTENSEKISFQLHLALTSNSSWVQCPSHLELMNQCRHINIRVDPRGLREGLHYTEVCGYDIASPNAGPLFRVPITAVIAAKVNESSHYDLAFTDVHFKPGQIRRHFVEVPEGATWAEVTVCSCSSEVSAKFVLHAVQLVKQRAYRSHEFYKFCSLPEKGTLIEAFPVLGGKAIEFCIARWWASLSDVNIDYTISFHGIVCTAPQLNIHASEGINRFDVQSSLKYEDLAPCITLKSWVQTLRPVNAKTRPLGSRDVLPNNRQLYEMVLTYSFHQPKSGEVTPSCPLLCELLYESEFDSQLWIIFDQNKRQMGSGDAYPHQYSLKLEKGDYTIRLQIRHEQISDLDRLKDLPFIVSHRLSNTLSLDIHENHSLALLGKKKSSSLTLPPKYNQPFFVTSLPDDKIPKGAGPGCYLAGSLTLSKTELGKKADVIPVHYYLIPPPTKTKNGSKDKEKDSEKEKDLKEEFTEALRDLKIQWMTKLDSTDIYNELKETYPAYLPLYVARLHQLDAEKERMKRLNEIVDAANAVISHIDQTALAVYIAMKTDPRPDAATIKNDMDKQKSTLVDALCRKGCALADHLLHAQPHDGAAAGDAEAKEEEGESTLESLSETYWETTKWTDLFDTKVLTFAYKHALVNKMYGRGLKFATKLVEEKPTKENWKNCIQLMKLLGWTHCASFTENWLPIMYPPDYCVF
A word on the IC50: it is the concentration that inhibits the measured activity by half. Read a high IC50 as a need for much substance. Consider `CCc1c[nH]c([C@@H]2Cc3ccccc3N2C(=O)[C@H](C)N)n1`, for which the IC50 is > 10 µM.
The figure for `CCCc1cnc([C@@H]2Cc3ccccc3N2C(C)=O)[nH]1` is > 10 µM; for `CC[C@@H]1NC(=O)[C@@H]2Cc3ccccc3N2C1=O` it is > 10 µM; for `CC[C@H](N)C(=O)N1c2ccccc2C[C@H]1c1ncc(C)[nH]1` it is 0.023 µM.

Values taken from ChEMBL document CHEMBL1135660, “Design, synthesis, and tripeptidyl peptidase II inhibitory activity of a novel series of (S)-2,3-dihydro-2-(4-alkyl-1H-imidazol-2-yl)-1H-indoles” (J Med Chem, 2002).
